Assay results reported in PubChem BioAssay AID1963856 (Molecular Pharmacology Branch, DTP, NCI, 2024).

Tested on: LG0567-F671-PDC KRAS tumor spheroid viability
Assay: Anticancer human tumor LG0567-F671-PDC patient-derived lung adenocarcinoma cell line growth inhibition [KRAS2]
Settings: spheroids with HUVEC and MSC; for IC50: curve of first compound; for viability, T/C: stronger effect = lower value
Summary of the method: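 Combination screen of spheroid viability in tumor-cell co-cultures with endothelial (HUVEC) and mesenchymal stem cell stroma. Each agent was tested in half-log dilutions, topping at clinical Cmax or at 10 microM without a known Cmax.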

[1] = second compound 0.1 µM, first compound 0.00316 µM
[2] = second compound 0.1 µM, first compound 0.01 µM
[3] = second compound 0.1 µM, first compound 0.0316 µM
[4] = second compound 0.1 µM, first compound 0.1 µM
[5] = second compound 0.316 µM, first compound 0.00316 µM
[6] = second compound 0.316 µM, first compound 0.01 µM
[7] = second compound 0.316 µM, first compound 0.0316 µM
[8] = second compound 0.316 µM, first compound 0.1 µM
[9] = second compound 1 µM, first compound 0.00316 µM
[10] = second compound 1 µM, first compound 0.01 µM
[11] = second compound 1 µM, first compound 0.0316 µM
[12] = second compound 1 µM, first compound 0.1 µM
[13] = second compound 3.16 µM, first compound 0.00316 µM
[14] = second compound 3.16 µM, first compound 0.01 µM
[15] = second compound 3.16 µM, first compound 0.0316 µM
[16] = second compound 3.16 µM, first compound 0.1 µM
[17] = second compound 10 µM, first compound 0.00316 µM
[18] = second compound 10 µM, first compound 0.01 µM
[19] = second compound 10 µM, first compound 0.0316 µM
[20] = second compound 10 µM, first compound 0.1 µM
[21] = second compound 0.1 µM, first compound 0.316 µM
[22] = second compound 0.1 µM, first compound 1 µM
[23] = second compound 0.1 µM, first compound 3.16 µM
[24] = second compound 0.1 µM, first compound 10 µM
[25] = second compound 0.316 µM, first compound 0.316 µM
[26] = second compound 0.316 µM, first compound 1 µM
[27] = second compound 0.316 µM, first compound 3.16 µM
[28] = second compound 0.316 µM, first compound 10 µM
[29] = second compound 1 µM, first compound 0.316 µM
[30] = second compound 1 µM, first compound 1 µM
[31] = second compound 1 µM, first compound 3.16 µM
[32] = second compound 1 µM, first compound 10 µM
[33] = second compound 3.16 µM, first compound 0.316 µM
[34] = second compound 3.16 µM, first compound 1 µM
[35] = second compound 3.16 µM, first compound 3.16 µM
[36] = second compound 3.16 µM, first compound 10 µM
[37] = second compound 10 µM, first compound 0.316 µM
[38] = second compound 10 µM, first compound 1 µM
[39] = second compound 10 µM, first compound 3.16 µM
[40] = second compound 10 µM, first compound 10 µM
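Also: drug exposure lasted seven days after spheroids formed for three days.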
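For viability, T/C in this document: 100% = DMSO vehicle control viability.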

Row | Structure (SMILES) | IC50 (second compound 0.1 µM) [nM] | IC50 (second compound 0.316 µM) [nM] | IC50 (second compound 1 µM) [nM] | IC50 (second compound 3.16 µM) [nM] | IC50 (second compound 10 µM) [nM] | viability, T/C [3] [%] | viability, T/C [4] [%] | viability, T/C [7] [%] | viability, T/C [8] [%] | viability, T/C [11] [%] | viability, T/C [12] [%] | viability, T/C [15] [%] | viability, T/C [16] [%] | viability, T/C [19] [%] | viability, T/C [20] [%] | viability, T/C [21] [%] | viability, T/C [22] [%] | viability, T/C [25] [%] | viability, T/C [26] [%] | viability, T/C [29] [%] | also measured
1 | Cn1ncnc1[C@H]1c2n[nH]c(=O)c3cc(F)cc(c23)N[C@@H]1c1ccc(F)cc1 + CNCc1ccccc1-c1csc(C(C)Nc2nc(C)nc3cc(OC)c(OC)cc23)c1 | > 100 | > 100 | 13.1 | < 0.316 | < 0.316 | 71.4 | 74.5 | 58 | 60.6 | 42.2 | 46.1 | 0.2 | 0.36 | 1.32 | 0.63 |  |  |  |  |  | viability, T/C (second compound 0.1 µM, first compound 0.000316 µM): 79.2%; viability, T/C (second compound 0.1 µM, first compound 0.001 µM): 82%; viability, T/C [1]: 73.4%; viability, T/C [2]: 70%; viability, T/C (second compound 0.316 µM, first compound 0.000316 µM): 64.8%; viability, T/C (second compound 0.316 µM, first compound 0.001 µM): 64.9%; viability, T/C [5]: 61.1%; viability, T/C [6]: 57.6%; viability, T/C (second compound 1 µM, first compound 0.000316 µM): 46.2%; viability, T/C (second compound 1 µM, first compound 0.001 µM): 54.4%; viability, T/C [9]: 53.7%; viability, T/C [10]: 55.8%; viability, T/C (second compound 3.16 µM, first compound 0.000316 µM): 0.22%; viability, T/C (second compound 3.16 µM, first compound 0.001 µM): 0.9%; viability, T/C [13]: 0.17%; viability, T/C [14]: 0.13%; viability, T/C (second compound 10 µM, first compound 0.000316 µM): 0.39%; viability, T/C (second compound 10 µM, first compound 0.001 µM): 0.63%; viability, T/C [17]: 0.39%; viability, T/C [18]: 0.11%
2 | COc1cc2nccc(Oc3ccc(NC(=O)C4(C(=O)Nc5ccc(F)cc5)CC4)cc3)c2cc1OC + CC1OCC2(CCN(c3cnc(Sc4ccnc(N)c4Cl)c(N)n3)CC2)C1N | < 31.6 | < 31.6 | < 31.6 | < 31.6 | < 31.6 | 54 | 50.4 | 33 | 30.9 | 25.7 | 22.8 | 19.6 | 15.2 | 13.1 | 9.16 | 33.3 | 31.5 | 26.6 | 20.9 | 18.4 | viability, T/C [23]: 30.3%; viability, T/C [24]: 88.4%; viability, T/C [27]: 13.3%; viability, T/C [28]: 69.7%; viability, T/C [30]: 13.8%; viability, T/C [31]: 9.19%; viability, T/C [32]: 43.3%; viability, T/C [33]: 8.47%; viability, T/C [34]: 6.57%; viability, T/C [35]: 6.28%; viability, T/C [36]: 25.8%; viability, T/C [37]: 8.96%; viability, T/C [38]: 6.33%; viability, T/C [39]: 3.72%; viability, T/C [40]: 23.3%
3 | O=C(c1cc(Cc2n[nH]c(=O)c3ccccc23)ccc1F)N1CCN(C(=O)C2CC2)CC1 + COc1cc2nc(C)nc(NC(C)c3cc(N)cc(C(F)(F)F)c3)c2cc1OC1CCOC1 | > 10000 | > 10000 | > 10000 | > 10000 | > 10000 | 84.3 | 108 | 68.5 | 58.5 | 102 | 117 | 69.3 | 68.7 | 78.7 | 63.2 | 81.8 | 109 | 67.8 | 64 | 98 | viability, T/C [23]: 96.8%; viability, T/C [24]: 70.3%; viability, T/C [27]: 57.4%; viability, T/C [28]: 70.5%; viability, T/C [30]: 94.1%; viability, T/C [31]: 95%; viability, T/C [32]: 81.5%; viability, T/C [33]: 72.8%; viability, T/C [34]: 63%; viability, T/C [35]: 68.8%; viability, T/C [36]: 61.5%; viability, T/C [37]: 68%; viability, T/C [38]: 63.2%; viability, T/C [39]: 53.1%; viability, T/C [40]: 56.1%
4 | CCN1CCN(Cc2ccc(Nc3ncc(F)c(-c4cc(F)c5nc(C)n(C(C)C)c5c4)n3)nc2)CC1 + COc1cc2nc(C)nc(NC(C)c3cc(N)cc(C(F)(F)F)c3)c2cc1OC1CCOC1 | 913 | 47.3 | 7.74 | < 3.16 | 5.32 | 54.3 | 56.7 | 51.5 | 47.5 | 45.7 | 38.7 | 34.7 | 33.6 | 26.5 | 9.45 | 54.8 | 47.3 | 44.2 | 45.3 | 32.2 | viability, T/C [1]: 70.5%; viability, T/C [2]: 64.7%; viability, T/C [5]: 69%; viability, T/C [6]: 64.2%; viability, T/C [9]: 57.3%; viability, T/C [10]: 47.3%; viability, T/C [30]: 42.4%; viability, T/C [13]: 44.4%; viability, T/C [14]: 39.5%; viability, T/C [33]: 29.4%; viability, T/C [34]: 30.8%; viability, T/C [17]: 60.8%; viability, T/C [18]: 34.8%; viability, T/C [37]: 0.94%; viability, T/C [38]: 0.43%
5 | COc1cc(Nc2ncc3c(n2)-c2ccc(Cl)cc2C(c2c(F)cccc2OC)=NC3)ccc1C(=O)O + C=CC(=O)N1CCN(c2nc(=O)n(-c3c(C)ccnc3C(C)C)c3nc(-c4c(O)cccc4F)c(F)cc23)C(C)C1 | < 31.6 | < 31.6 | < 31.6 | < 31.6 | < 31.6 | 25.7 | 24.3 | 12.2 | 11.9 | 27.2 | 23.6 | 23.8 | 20.6 | 23.3 | 23.5 | 25.9 | 24.3 | 11.1 | 11.3 | 23.5 | viability, T/C [23]: 22.8%; viability, T/C [24]: 21.6%; viability, T/C [27]: 11.4%; viability, T/C [28]: 9.24%; viability, T/C [30]: 24.6%; viability, T/C [31]: 25.7%; viability, T/C [32]: 21.6%; viability, T/C [33]: 20.2%; viability, T/C [34]: 22.2%; viability, T/C [35]: 21%; viability, T/C [36]: 20.6%; viability, T/C [37]: 23.8%; viability, T/C [38]: 24.4%; viability, T/C [39]: 22.5%; viability, T/C [40]: 29.5%
